In test [1] the test system is Cullin-3 (CUL3) neddylation. Briefly: AlphaLISA assay for Cullin-3 (CUL3) neddylation in TF 1 cells. The test is classed as cell-based. The following applies: Homo sapiens, TF-1, 3 h, 3 hours treatment. Put shortly: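 TF 1 cells in unsupplemented IMDM treated with compound concentrations for 3 h, then lysed. CUL3 neddylation detected by AlphaLISA (biotinylated anti-NEDD8, anti-CUL3 acceptor beads overnight, streptavidin donor beads 1 h); normalized to vehicle (0%) and 1 μM DI-1548 (100%), IC50 from Hill fits.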

Test [2] concerns the target DCN1 (DCUND1) protein PONY domain (Homo sapiens (Human), UniProt Q96GG9). Nature of the test: TR-FRET assay, DCN1 binding with FAM-labeled probe. A digest of the protocol: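 Binding was read as the TR-FRET ratio between a FAM-tagged inhibitor probe and Tb-labeled biotinylated E. coli-expressed DCN1 PONY domain, measured 1, 5 and 24 h after compound addition. The two setups used 5 nM protein/20 nM FAM-probe or 0.31 nM protein/900 nM total probe (100 nM labeled), in TritonX buffer with 200 mM NaCl.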
In general terms: Time-resolved FRET reads energy transfer from a long-lived donor to a nearby acceptor.

Another test concerns the target DCN1 protein (Homo sapiens (Human), UniProt Q96GG9). Briefly: Intact Protein MS Analysis with the RapidFire-TOF System (covalent adduct formation). The test is classed as binding. The following applies: MS Emax; 400 nM DCN1, 3 hours at room temperature. Put shortly:
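Tag-cleaved human DCN1 (400 nM) expressed in E. coli, in 25 mM Tris-HCl, 200 mM NaCl, 1 mM DTT, was incubated with 11 compound concentrations for 3 h at room temperature and quenched with 0.2% formic acid. Intact-protein Q-TOF MS with deconvolution detected the compound adduct mass.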

The mark [3] stands for this setting: 24 hr after treatment with compound, read-out: TR FRET IC50 24 hr.
Setting [4] is: read-out: TR FRET IC50 1 hr, 1 hr after treatment with compound.
Where [5] appears, read: TR FRET IC50 1 hr (nM), 1 hr after treatment with compound.

These results are taken from patent US20250163057A1, “DCN-1 MODULATING COMPOUNDS AND METHODS OF USE THEREOF” (Cellarity, Inc., priority 2023, published 2025).

The IC50 is the point on the concentration scale where inhibition reaches its midpoint.

Read-outs that look alike come from different tables or passages of the source.

Sequence of DCN1 protein (Q96GG9 whole entry): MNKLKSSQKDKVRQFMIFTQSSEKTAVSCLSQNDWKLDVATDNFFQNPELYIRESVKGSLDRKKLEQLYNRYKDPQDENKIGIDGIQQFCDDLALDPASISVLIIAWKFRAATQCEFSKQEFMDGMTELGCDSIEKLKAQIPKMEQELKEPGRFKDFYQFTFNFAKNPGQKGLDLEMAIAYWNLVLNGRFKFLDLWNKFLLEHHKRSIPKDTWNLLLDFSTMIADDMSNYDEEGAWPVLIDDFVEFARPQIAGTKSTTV
Sequence of DCN1 (DCUND1) protein PONY domain (Q96GG9 60-248): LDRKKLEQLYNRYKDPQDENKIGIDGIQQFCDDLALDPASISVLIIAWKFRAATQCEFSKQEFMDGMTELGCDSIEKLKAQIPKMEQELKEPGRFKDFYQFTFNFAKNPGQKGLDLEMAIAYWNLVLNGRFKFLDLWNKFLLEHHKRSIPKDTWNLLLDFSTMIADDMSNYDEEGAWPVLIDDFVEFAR

On to `CCN1C(=O)[C@@H](NC(=O)c2cccc(C(F)(F)F)c2)[C@@H](C2CCCC2)c2c(C(=O)N3[C@H](C#N)C[C@H]4C[C@H]43)nn(C3CCOCC3)c21` [Compound I-376], for which the values for the IC50 in test [1], in test [2] (setting [3]) and in test [2] (setting [4]) were at most 100 nM, at most 200 nM and at most 200 nM, respectively. For the same compound, the “% Adduct Formation” value on DCN1 protein was “+++ (MS Emax % adduct formation greater than 80.0 and less than or equal to 100.0)”.

Regarding `CCN1C(=O)[C@@H](NC(=O)c2cccc(C(F)(F)F)c2)[C@@H](c2ccc(F)cc2)c2c(C(=O)N(CC#N)CC(=O)OC)nn(-c3ccccc3)c21` (stereo in doubt) [Compound I-287], the values for the half-inhibitory concentration (IC50) in test [1], in test [2] (setting [3]) and in test [2] (setting [4]) were at most 100 nM, at most 200 nM and at most 200 nM, respectively. For the same compound, the “% Adduct Formation” value on DCN1 protein was “+++ (MS Emax % adduct formation greater than 80.0 and less than or equal to 100.0)”.

Turning to `N#C[C@@H]1C[C@H]2C[C@H]2N1C(=O)c1nn(C2CCOCC2)c2c1[C@H](C1CC1)[C@H](NC(=O)c1cccc(C(F)(F)F)c1)C(=O)N2C1CC1` [Compound I-388, N-((4S,5S)-3-((1R,3S,5R)-3-cyano-2-azabicyclo[3.1.0]hexane-2-carbonyl)-4,7-dicyclopropyl-6-oxo-1-(tetrahydro-2H-pyran-4-yl)-4,5,6,7-tetrahydro-1H-pyrazolo[3,4-b]pyridin-5-yl)-3-(trifluoromethyl)benzamide], the IC50 was at most 100 nM in test [1], at most 200 nM in test [2] (setting [3]) and at most 200 nM in test [2] (setting [4]). In addition, the “% Adduct Formation” value on DCN1 protein is “++ (MS Emax % adduct formation greater than 30.0 and less than or equal to 80.0)”.

For `CCN1C(=O)[C@@H](NC(=O)c2cccc(C(F)(F)F)c2)[C@@H](c2ccc(F)cc2)c2c(C(=O)N(CC#N)CCO)nn(-c3ccccc3)c21` (stereo in doubt) [Compound I-286], the half-inhibitory concentration (IC50) in test [1] was at most 100 nM; in test [2] (setting [3]), at most 200 nM; in test [2] (setting [4]) it was at most 200 nM. Moreover, the “% Adduct Formation” value on DCN1 protein is “+ (MS Emax % adduct formation greater than or equal to 0.0 and less than or equal to 30.0)”.

Take `CCN1C(=O)[C@@H](NC(=O)c2cccc(C(F)(F)F)c2)[C@@H](C2CC2)c2c(C(=O)N(CC#N)CC#N)nn(C3CCOCC3)c21` [Compound I-373]: the results for the IC50 in test [1], in test [2] (setting [3]) and in test [2] (setting [4]) were at most 100 nM, at most 200 nM and at most 200 nM, respectively. Further, on DCN1 protein, the “% Adduct Formation” value was “++ (MS Emax % adduct formation greater than 30.0 and less than or equal to 80.0)”.

In the case of `CCN1C(=O)[C@@H](NC(=O)c2cccc(C(F)(F)F)c2)[C@@H](c2ccc(F)cc2)c2c(C(=O)N(CC#N)CC#N)nn(C3CCOCC3)c21` [Compound I-365], the concentration for half-maximal inhibition (IC50) in test [1] is at most 100 nM; in test [2] (setting [3]), at most 200 nM; in test [2] (setting [4]), at most 200 nM. The “% Adduct Formation” value on DCN1 protein is “+++ (MS Emax % adduct formation greater than 80.0 and less than or equal to 100.0)”.

With `CCN1C(=O)[C@@H](NC(=O)c2cccc(C(F)(F)F)c2)[C@@H](c2ccc(F)cc2)c2c(C(=O)N(CC#N)CCN(C)C3COC3)nn(-c3ccccc3)c21` (racemic) [Compound I-321], the concentration for half-maximal inhibition (IC50) in test [1] is at most 100 nM; in test [2] (setting [3]), at most 200 nM; in test [2] (setting [4]), at most 200 nM. The “% Adduct Formation” value on DCN1 protein is “+++ (MS Emax % adduct formation greater than 80.0 and less than or equal to 100.0)”.

`CCN1C(=O)[C@@H](NC(=O)c2cccc(C(F)(F)F)c2)[C@@H](c2ccc(F)cc2)c2c(C(=O)N3CCC[C@H]3C#N)nn(-c3cccc(OCCN4CC5(COC5)C4)c3)c21` [Compound I-342]: the figures for the IC50 in test [1], in test [2] (setting [3]) and in test [2] (setting [4]) were at most 100 nM, at most 200 nM and at most 200 nM, respectively. The “% Adduct Formation” value at DCN1 protein is “+++ (MS Emax % adduct formation greater than 80.0 and less than or equal to 100.0)”.

Consider `CCN1C(=O)[C@@H](NC(=O)c2cccc(C(F)(F)F)c2)C(c2ccc(F)cc2)c2c(C(=O)N(C)C(C)C#N)nn(C3CCOCC3)c21` (stereo partly shown) [Compound I-305], for which the IC50 in test [1] is at most 100 nM; in test [2] (setting [3]) it was at most 200 nM; in test [2] (setting [4]), at most 200 nM. The “% Adduct Formation” value on DCN1 protein is “+++ (MS Emax % adduct formation greater than 80.0 and less than or equal to 100.0)”.

In the case of `CCN1C(=O)[C@@H](NC(=O)c2cccc(C(F)(F)F)c2)[C@@H](c2ccc(F)cc2)c2c(C(=O)N3CCC[C@H]3C#N)nn(-c3cccc(OCCN4CCN(C5COC5)CC4)c3)c21` [Compound I-340], the half-inhibitory concentration (IC50) is at most 100 nM in test [1], at most 200 nM in test [2] (setting [3]) and at most 200 nM in test [2] (setting [4]). The “% Adduct Formation” value on DCN1 protein was “+++ (MS Emax % adduct formation greater than 80.0 and less than or equal to 100.0)”.

Regarding `CCN1C(=O)[C@@H](NC(=O)c2cccc(C(F)(F)F)c2)[C@@H](c2ccc(F)cc2)c2c(C(=O)N(CC#N)CCN3CC4CC(C3)O4)nn(-c3ccccc3)c21` (mixture of isomers) [Compound I-322], the IC50 is at most 100 nM in test [1], at most 200 nM in test [2] (setting [3]) and at most 200 nM in test [2] (setting [4]). Also, on DCN1 protein, the “% Adduct Formation” value is “+++ (MS Emax % adduct formation greater than 80.0 and less than or equal to 100.0)”.

Take `CCN1C(=O)[C@@H](NC(=O)c2cccc(C(F)(F)F)c2)[C@@H](c2ccc(F)cc2)c2c(C(=O)N3CCC[C@H]3C#N)nn(-c3cccc(OCCN4CCOCC4)c3)c21` [Compound I-339]: the half-maximal inhibitory concentration (IC50) is at most 100 nM in test [1], at most 200 nM in test [2] (setting [3]) and 1000 to 3000 nM in test [2] (setting [5]). Also, the “% Adduct Formation” value at DCN1 protein is “+++ (MS Emax % adduct formation greater than 80.0 and less than or equal to 100.0)”.

Turning to `CCN1C(=O)[C@@H](NC(=O)c2cccc(C(F)(F)F)c2)[C@@H](c2ccc(F)cc2)c2c(C(=O)N(C)[C@H](C#N)CCN(C)C3COC3)nn(-c3ccccc3)c21` [Compound I-310], the values for the IC50 in test [1], in test [2] (setting [3]) and in test [2] (setting [4]) were at most 100 nM, at most 200 nM and at most 200 nM, respectively. For the same compound, the “% Adduct Formation” value on DCN1 protein is “+++ (MS Emax % adduct formation greater than 80.0 and less than or equal to 100.0)”.

For `CCN1C(=O)[C@@H](NC(=O)c2cccc(C(F)(F)F)c2)[C@@H](c2ccc(F)cc2)c2c(C(=O)N(C)[C@@H](C#N)CCN3CC4CCC(C3)O4)nn(-c3ccccc3)c21` (mixture of isomers) [Compound I-319], the IC50 is at most 100 nM in test [1], at most 200 nM in test [2] (setting [3]) and 1000 to 3000 nM in test [2] (setting [5]). Besides, the “% Adduct Formation” value at DCN1 protein was “++ (MS Emax % adduct formation greater than 30.0 and less than or equal to 80.0)”.

For the compound `CCN1C(=O)[C@@H](NC(=O)c2cccc(C(F)(F)F)c2)[C@@H](c2ccc(F)cc2)c2c(C(=O)N3[C@H](C#N)C[C@H]4C[C@H]43)nn(C3CC3)c21` [Compound I-330], the IC50 in test [1] was at most 100 nM; in test [2] (setting [3]) it was at most 200 nM; in test [2] (setting [4]), at most 200 nM. In addition, on DCN1 protein, the “% Adduct Formation” value is “+++ (MS Emax % adduct formation greater than 80.0 and less than or equal to 100.0)”.

`CCN1C(=O)[C@@H](NC(=O)c2ccn(C(F)(F)F)n2)[C@@H](c2ccc(F)cc2)c2c(C(=O)N3CCNC[C@H]3C#N)nn(-c3ccccc3)c21` [Compound I-346, N-((4S,5S)-3-((S)-2-cyanopiperazine-1-carbonyl)-7-ethyl-4-(4-fluorophenyl)-6-oxo-1-phenyl-4,5,6,7-tetrahydro-1H-pyrazolo[3,4-b]pyridin-5-yl)-1-(trifluoromethyl)-1H-pyrazole-3-carboxamide]: the IC50 is at most 100 nM in test [1], at most 200 nM in test [2] (setting [3]) and 200 to 1000 nM in test [2] (setting [5]). The “% Adduct Formation” value at DCN1 protein was “+++ (MS Emax % adduct formation greater than 80.0 and less than or equal to 100.0)”.

With `CCN1C(=O)[C@@H](NC(=O)c2cccc(C(F)(F)F)c2)[C@@H](c2ccc(F)cc2)c2c(C(=O)N(C)[C@@H](C#N)CCO)nn(-c3ccccc3)c21` (relative stereo) [Compound I-290, (4S,5S)—N-[(1R*)-1-cyano-3-hydroxypropyl]-7-ethyl-4-(4-fluorophenyl)-N-methyl-6-oxo-1-phenyl-5-[3-(trifluoromethyl)benzamido]-4H,5H-pyrazolo[3,4-b]pyridine-3-carboxamide], the values for the 50% inhibitory concentration (IC50) in test [1], in test [2] (setting [3]) and in test [2] (setting [5]) were at most 100 nM, at most 200 nM and at most 200 nM, respectively. The “% Adduct Formation” value on DCN1 protein is “+ (MS Emax % adduct formation greater than or equal to 0.0 and less than or equal to 30.0)”.

As for `CCN1C(=O)[C@@H](NC(=O)c2cccc(C(F)(F)F)c2)[C@@H](c2ccc(F)cc2)c2c(C(=O)N3CCS(=O)(=O)CC3C#N)nn(-c3ccccc3)c21` (stereo partly shown) [Compound I-325], the results for the IC50 in test [1], in test [2] (setting [3]) and in test [2] (setting [4]) were at most 100 nM, at most 200 nM and at most 200 nM, respectively. Besides, the “% Adduct Formation” value at DCN1 protein was “+++ (MS Emax % adduct formation greater than 80.0 and less than or equal to 100.0)”.

In the case of `CCN1C(=O)[C@@H](NC(=O)c2cccc(C(F)(F)F)c2)[C@@H](c2ccc(F)cc2)c2c(C(=O)N(C)[C@H](C#N)CCN3CC4CCC(C3)O4)nn(-c3ccccc3)c21` [Compound I-318], the IC50 in test [1] is at most 100 nM; in test [2] (setting [3]) it was at most 200 nM; in test [2] (setting [5]) it was 1000 to 3000 nM. Further, the “% Adduct Formation” value on DCN1 protein was “+++ (MS Emax % adduct formation greater than 80.0 and less than or equal to 100.0)”.
